Data published in publication PMC7777204, “Locking mixed-lineage kinase domain-like protein in its auto-inhibited state prevents necroptosis” (Proceedings of the National Academy of Sciences of the …, 2020).

Tested on: Jurkat FADD−/− cells
Test: Jurkat FADD−/− necroptosis assay
Type: cell-based
Conditions: Homo sapiens, 10 ng/mL huTNFα, 24 h, Cell Titer Glo viability, read-out: Jurkat NEC IC50
Procedure: For the Jurkat FADD^−/− Necroptosis assay, compounds were serially diluted in 100% dimethyl sulfoxide (DMSO) (Sigma-Aldrich catalog no. 41641), and 250 nL was transferred to a sterile 384-well microtiter plate (PerkinElmer catalog no. 6007688) via Echo liquid handler (LABCYTE). Five thousand Jurkat FADD ^−/− cells (ATCC catalog no. CRL-2572) in 20 µL of modified Roswell Park Memorial Institute medium (Gibco catalog no. 10491), 10% fetal calf serum (Gibco catalog no. 100500), 1x Anti/Anti (Gibco catalog no. 15240-062), 1x L-Glutamax (Gibco catalog no. 35050-087), and 1% PenStrep (SIGMA catalog no. P4333) were seeded into each well of the prepared assay plate with compound. Cells and compounds were incubated for 30 min at 37 °C (humidified incubator with 5% CO2). After incubation, 5 µL of recombinant human TNFα (huTNFα) (Biotrend catalog no. cyt-223; 10 ng/mL final concentration [f.c.]) was added to the cells, followed by an incubation of 24 h at 37 °C. Following the incubation, the experimental plates were equilibrated to room temperature (30 min) before 25 µL of Cell Titer Glo Luminescent Cell Viability Assay System reagent (Promega catalog no. G7571) was added to the plate wells, incubated at room temperature for ∼10 min. After incubation, the samples were analyzed for luminescence by using an Envision reader (PerkinElmer).
Each assay plate contained wells with “high” and “low” controls. High controls (100% CTL) were defined as cells treated with DMSO, and low controls (0% CTL) were defined as cells treated with 10 ng/mL recombinant huTNFα. IC50 values were calculated based on the percentage of control values using a four-parameter-fitting model.
All cellular assays were done for Cpd 1, Cpd 2, Cpd 3, Cpd 4, and Cpd 5 in duplicate and in quadruplet for NSA.

Cn1c(=O)c2c(nc(S(C)(=O)=O)n2C)n(CC#Cc2cccc(O)c2)c1=O [Cpd 3]
IC50: 541 nM
